Square brackets hold non-standard residues; d marks the D form. Peptide text beside a SMILES is read from it.
Key:
[1] = Tolerability of single oral doses; type: in vivo, C57BL/6 mice; conditions: single oral doses of 10, 30 and 100 mg/kg, female and male mice
Source text: Animal care and all animal experiments were undertaken with federal guidelines and approval of the Institutional Animal Ethical Committee of McGill University, Montreal, Canada (Protocol Application Number: 2017-7880) and adequate measures were taken to minimize pain or discomfort. C57BL/6 mice were purchased from Charles River laboratories, a total of 144 healthy (7-9 weeks old) male and female (20-25 g) were grouped accordingly and housed in polycarbonate cages, (three mice per cage per sex) in air-conditioned rooms with a 12 h light/dark cycle. Animals were allowed unlimited access to drinking water and standard mouse chow during the study. Animals (n=3) were orally dosed with D-AIP using an oral gavage at 10, 30 and 100 mg/kg respectively prepared in phosphate buffered saline (PBS). […] Pharmacokinetic parameters area under the curve (AUC), maximum concentration reached (Cmax), time at which maximum concentration is reached (Tmax). elimination rate constant (A), elimination half-life (t1/2), apparent total clearance from plasma after oral administration (CI/F), apparent volume of distribution (Vd) and mean residence time (MRT) were calculated using PKSolver, a freely available menu-driven add-in program for Microsoft Excel written in Visual Basic for Applications (VBA), for solving problems in pharmacokinetics.

[2] = MALDI-TOF-MSI brain distribution; type: in vivo, C57BL/6 mice; conditions: single oral dose 10 mg/kg, 4 h post-administration, sagittal brain sections
Protocol: Frozen brains were stored at −80° C. until needed for analysis. Serial sagittal brain sections (10 μm thick) obtained using a cryostat (Leica Microsystems CM1100, Wetzlar, Germany), were thaw mounted onto an indium tin oxide (ITO) coated glass slide (Bruker, Bremen, Germany). Glass slides were removed from deep freeze and immediately transferred to a vacuum desiccator. Following 12 h desiccation time, the slides were scanned using a flatbed scanner (HP LaserJet 3055). The α-cyano-4-hydroxy cinnamic acid (CHCA) matrix (10 mg/mL) was prepared in 50% acetonitrile (ACN) containing 0.1% trifluoroacetic acid (TFA). The matrix solution was sonicated for 10 min and centrifuged at 10 000 rpm for 10 min before transfer to the ImagePrep (Bruker Daltonics). […] A standard solution of D-AIP (1 μg/mL was analyzed using matrix assisted laser desorption ionization time of flight mass spectrometry (MALDI TOF MS) operated both at reflectron and MALDI MS/MS (LIFT) modes respectively with the aid of the UltraflExtreme MALDI TOF/TOF 2 KHz smartbeam laser (Bruker Daltonics, Bremen, Germany) and FlexControl acquisition software ran in positive ion mode. The instrument was calibrated using standard peptide mix spotted with CHCA matrix on the ground steel target (Bruker Daltonics, Bremen, Germany) for 500-1500 m/z. Each spectrum was acquired from 500 laser shots. […]

Compound: C[C@H](O)[C@@H](NC(=O)CNC(=O)[C@H](N)CCCNC(=N)N)C(=O)N[C@H](Cc1ccccc1)C(=O)N[C@H](CCC(=O)O)C(=O)NCC(=O)N[C@H](CCCCN)C(=O)N[C@H](Cc1ccccc1)C(=O)O [D-AIP] (H-[dR]G[dT][dF][dE]G[dK][dF]-OH; N-terminus and C-terminus assumed)
- tolerability [1]: well-tolerated with no detectable vital signs of abnormalities
- brain distribution [2]: distributed across cortex, hippocampus, thalamus and different other brain regions

Reference: patent US12613249B2 (THE ROYAL INSTITUTION FOR THE ADVANCEMENT OF LEARNING / …, priority 2019, dated 2026)
